Experimental data: patent US20160228575A1, “NARINGENIN COMPLEXES AND METHODS OF USE THEREOF” (THE GENERAL HOSPITAL CORPORATION, priority 2008, published 2016)

Legend:
ApoB = ApoB secretion by JFH-1 infected Huh-7.5.1 cells (human ApoB ELISA); format: cell-based; details: 24 hours, brefeldin A 2.5 μg/ml
Protocol: (§1) HCV-infected Huh-7.5.1 cells were plated on a 6-well plate at a density of 1×10^5 cells/cm^2 and cultured overnight in standard medium. Prior to the beginning of the experiment, the cells were washed 3 times with PBS and cultured with DMEM containing 5% lipoprotein-free FBS. Oleate, Insulin, Naringenin, and Brefeldin A were added at this time as described in the text. Following 24 hours of incubation, the plate was gently agitated to release mechanically bound particles, the media was collected, filtered to remove cellular debris, and stored at −80° C. for further analysis. The attached cells were washed 3 times with PBS, harvested, pelleted and stored at −80° C. for further analysis.
Huh-7.5.1 and primary human hepatocytes secreted ApoB was detected in the media using ALerCHEK, Inc (Portland, Me.) total human ApoB ELISA kit. Media was diluted 1:10 with the specimen diluent, and the assay was carried out according to manufacturer's directions.
HCV-infected Huh-7.5.1 cells were plated T-25 tissue culture flasks at a density of 1×10^5 cells/cm^2 and cultured overnight in standard medium. Prior to silencing, the cells were washed 3 times with PBS and media was replaced with OptiMEM basal medium. SureSilencing shRNA (GFP) plasmids against human ApoB100 as well as shRNA plasmid control (500 ng/ml) were combined with lipofectamine 2000 in OptiMEM and incubated with the cells overnight. SureSilencing shRNA plasmids code for GFP which was used to sort the transfected Huh7.5.1 cells, using FACSAria (BD Biosciences) located at the Partners AIDS Research Center. Transfected cells (10% of the total population) were sorted directly into a 12-well plate and allowed to adhere overnight. Culture media was conditioned by the transfected cells for 24 hours and analyzed as described above.

[1] = tested on: HCV (JFH-1) infection of naïve Huh7.5.1 cells; assay: HCV infectivity of cell culture supernatant on naïve Huh7.5.1 cells; format: cell-based, Hepatitis C virus
Protocol: The infectivity of the secreted HCV particles was measured as previously described (8). Naïve Huh7.5.1 cells were grown to 80% confluence and exposed to cell culture supernatants diluted 10-fold in culture media. Following 1 hour incubation at 37° C., the media was replaced, and the cells were cultured for 3 additional days. Levels of HCV infection were determined by immunofluorescence staining for HCV core protein. The viral titer is expressed as focus forming units per milliliter of supernatant (ffu/ml).

[2] = tested on: HCV (JFH-1) secreted by infected Huh-7.5.1 cells; assay: HCV secretion by JFH-1 infected Huh-7.5.1 cells (HCV core antigen ELISA, HCV positive strand RNA qPCR); format: cell-based, Hepatitis C virus
Protocol: The Huh-7.5.1 human hepatoma cell line and a plasmid containing the JFH-1 genome were kindly provided by Dr. Chisari (Scripps Research Institute, CA) and Dr. Wakita (National Institute of Infectious Diseases, Tokyo) respectively. Huh-7.5.1 cells were cultured in DMEM medium supplemented with 10% FBS, 200 units/ml penicillin and […] streptomycin in a 5% CO2-humidified incubator at 37° C. In vitro transcribed genomic JFH-1 RNA was delivered to cells by liposome-mediated transfection as described by Zhong et al. (2005)(8). Infected Huh-7.5.1 cells were passaged every 3 days and used at passage <15. The presence of HCV in these cells and corresponding supernatants were determined by quantitative Polymerase Chain Reaction (qPCR) and immunofluorescence staining. Primary human hepatocytes were purchased from BD Biosciences (San Jose, Calif.) cultured on a collagen-coated 12 well plate in C+H culture media composed of DMEM supplemented with 10% heat-inactivated FBS, 200 U/mL penicillin/streptomycin, 7.5 μg/mL hydrocortisone, 20 ng/mL EGF, 14 ng/mL glucagons and 0.5 U/mL insulin. The media was supplemented with 2% DMSO for long-term culture of the primary cells.
as §1
Huh-7.5.1 secreted HCV core antigen was detected in the media using Wako Chemicals (Cambridge, Mass.) ORTHO HCV antigen ELISA kit. Media was used as is, and the assay was carried out according to manufacturer's directions.
(§2) Virus samples collected in each experiment were filtered with a 0.45 μm filter and a volume of 100 μL for each sample was heated at 95° C. for 45 min. The reverse transcription reaction step was performed on a Mastercycler epgrdientS (Eppendorf) instrument using Omniscript and Sensiscript RT Kits (Qiagen). Real time PCR was performed on a Light Cycler LC-24 (Idaho Technology), using SuperScript™ III Platinum® CellsDirect Two-Step qRT-PCR Kits (Invitrogen) for quantitative PCR. For reverse transcription step, 2 μL of sample without RNA extraction were used. For real time PCR, 1 μL of the reverse transcription reactions was used. All reactions were performed according to the manufacturer's instructions using the primers detailed in Table 1.
However, this experiment was carried out on cells continuously producing the virus. Long-term treatment could potentially have a greater effect. […] This treatment is compared to the current standard-of-care, 1000 i.u. of Interferon α (IFNα). Both treatments lowered HCV RNA to a similar level, 96±5% and 93±5% respectively.

[3] = 400 mg/day oral, hypercholesterolemic patients; cited from earlier work
[4] = tested on: HCV (JFH-1) in Huh-7.5.1 cells; assay: Intracellular HCV RNA and core protein in infected Huh-7.5.1 cells; format: cell-based, Hepatitis C virus
Protocol: as §1, §2
Huh-7.5.1 cells were washed 3 times with PBS and fixed in 4% EM-grade paraformaldehyde for 10 minutes at room temperature. Slides were then washed with PBS and incubated in 100 mmol/L glycine for 15 minutes to saturate reactive groups. Samples were permeabilized for 15 minutes with 0.1% Triton X-100, blocked for 30 minutes with 1% bovine serum albumin and 5% donkey serum at room temperature, and stained with primary antibodies overnight at 4° C. After additional washes with PBS, samples were stained with fluorescently tagged secondary antibodies for 45 minutes at room temperature.

[5] = 24 hours, brefeldin A 2.5 μg/ml

C[C@H]1CCC/C=C/[C@@H]2C[C@H](O)C[C@H]2[C@H](O)/C=C/C(=O)O1 [brefeldin A, reference compound]
ApoB secretion (in words) (ApoB): blocked
inhibition of infectivity of the cell supernatant ([1]; supernatant after 24 hours stimulation, naringenin 200 μM, brefeldin A 2.5 μg/ml): 89%±10%
HCV core protein secretion (in words) [2, 5]: significantly inhibits
HCV positive strand RNA secretion (in words) [2, 5]: significantly inhibits

C[C@@H]1O[C@@H](O[C@H]2[C@H](Oc3cc(O)c4c(c3)O[C@H](c3ccc(O)cc3)CC4=O)O[C@H](CO)[C@@H](O)[C@@H]2O)[C@H](O)[C@H](O)[C@H]1O [naringin, reference compound]
lowering of LDL levels [3]: 17%

IFNα [reference compound]
inhibition of HCV (RNA) secretion, long-term treatment ([2]; long-term daily treatment of infected Huh7.5.1 cells, naringenin 200 μM, IFNα 1000 i.u.): 93±5%
HCV replication (intracellular HCV RNA), long-term treatment ([4]; long-term treatment, naringenin 200 μM, IFNα 1000 i.u.): inhibited

insulin: insulin obtained from Eli-Lilly [reference compound]
ApoB secretion (in words) (ApoB): downregulated
infectivity of the cell supernatant (in words) ([1]; supernatant of stimulated infected Huh-7.5.1 cells): decreased
HCV core protein secretion (in words) [2, 5]: downregulated
intracellular levels of HCV (positive strand) RNA ([4]; 24 hours stimulation): remained unchanged
